Tests used:
Mu-type opioid receptor = Mu-type opioid receptor (Homo sapiens, UniProt P35372)
[1] = molecular target: Vascular endothelial growth factor receptor 2 (Homo sapiens, UniProt P35968); assay type: functional
[2] = molecular target: T1, Alpha-1A adrenergic receptor (Homo sapiens, UniProt P35348); assay type: functional, cell-based
T1 sequence (P35348 whole entry): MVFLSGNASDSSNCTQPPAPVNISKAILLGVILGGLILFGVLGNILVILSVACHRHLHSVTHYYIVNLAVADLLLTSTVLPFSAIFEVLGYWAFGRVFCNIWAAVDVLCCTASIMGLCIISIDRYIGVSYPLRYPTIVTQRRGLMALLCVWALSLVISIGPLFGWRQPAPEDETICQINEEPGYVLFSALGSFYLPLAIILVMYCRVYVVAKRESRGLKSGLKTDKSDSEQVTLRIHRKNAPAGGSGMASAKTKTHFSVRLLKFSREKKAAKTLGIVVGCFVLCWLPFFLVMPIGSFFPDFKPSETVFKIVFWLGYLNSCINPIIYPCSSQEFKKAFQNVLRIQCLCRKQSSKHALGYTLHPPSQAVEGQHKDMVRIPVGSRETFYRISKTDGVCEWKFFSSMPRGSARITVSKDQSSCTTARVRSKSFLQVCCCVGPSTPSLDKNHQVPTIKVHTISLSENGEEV

[3] = molecular target: 5-hydroxytryptamine receptor 2B (Homo sapiens, UniProt P41595); assay type: functional, cell-based
[4] = molecular target: T2, Muscarinic acetylcholine receptor M1 (Homo sapiens, UniProt P11229); assay type: functional, cell-based
T2 sequence (P11229 whole entry): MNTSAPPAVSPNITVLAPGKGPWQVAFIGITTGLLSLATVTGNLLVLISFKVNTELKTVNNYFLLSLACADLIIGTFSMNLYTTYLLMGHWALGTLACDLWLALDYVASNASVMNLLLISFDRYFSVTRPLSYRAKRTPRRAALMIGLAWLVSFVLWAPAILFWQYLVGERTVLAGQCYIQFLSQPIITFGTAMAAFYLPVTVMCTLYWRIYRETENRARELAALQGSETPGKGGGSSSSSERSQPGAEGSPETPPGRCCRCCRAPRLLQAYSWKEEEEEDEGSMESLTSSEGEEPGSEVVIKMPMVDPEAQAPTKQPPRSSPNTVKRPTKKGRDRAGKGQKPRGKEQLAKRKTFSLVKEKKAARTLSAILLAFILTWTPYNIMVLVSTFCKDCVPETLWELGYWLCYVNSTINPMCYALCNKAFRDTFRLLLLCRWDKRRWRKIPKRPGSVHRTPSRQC

Acetylcholinesterase = Acetylcholinesterase (Homo sapiens, UniProt P22303); assay type: functional
Thromboxane A2 receptor = molecular target: T3, Thromboxane A2 receptor (Homo sapiens, UniProt P21731); assay type: functional, cell-based
T3 sequence (P21731 whole entry): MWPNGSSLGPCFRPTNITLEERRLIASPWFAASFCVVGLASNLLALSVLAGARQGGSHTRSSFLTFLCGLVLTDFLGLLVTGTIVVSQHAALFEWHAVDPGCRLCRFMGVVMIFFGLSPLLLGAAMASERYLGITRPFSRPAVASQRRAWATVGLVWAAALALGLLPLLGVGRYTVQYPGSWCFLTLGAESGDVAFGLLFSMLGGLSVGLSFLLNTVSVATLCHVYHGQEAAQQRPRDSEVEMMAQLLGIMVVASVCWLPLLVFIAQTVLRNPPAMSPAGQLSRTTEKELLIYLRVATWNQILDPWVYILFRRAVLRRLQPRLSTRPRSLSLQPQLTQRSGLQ

D(1A) dopamine receptor = D(1A) dopamine receptor (Homo sapiens, UniProt P21728)
D(3) dopamine receptor = D(3) dopamine receptor (Homo sapiens, UniProt P35462)
[5] = molecular target: T4, Muscarinic acetylcholine receptor M2 (Homo sapiens, UniProt P08172)
T4 sequence (P08172 whole entry): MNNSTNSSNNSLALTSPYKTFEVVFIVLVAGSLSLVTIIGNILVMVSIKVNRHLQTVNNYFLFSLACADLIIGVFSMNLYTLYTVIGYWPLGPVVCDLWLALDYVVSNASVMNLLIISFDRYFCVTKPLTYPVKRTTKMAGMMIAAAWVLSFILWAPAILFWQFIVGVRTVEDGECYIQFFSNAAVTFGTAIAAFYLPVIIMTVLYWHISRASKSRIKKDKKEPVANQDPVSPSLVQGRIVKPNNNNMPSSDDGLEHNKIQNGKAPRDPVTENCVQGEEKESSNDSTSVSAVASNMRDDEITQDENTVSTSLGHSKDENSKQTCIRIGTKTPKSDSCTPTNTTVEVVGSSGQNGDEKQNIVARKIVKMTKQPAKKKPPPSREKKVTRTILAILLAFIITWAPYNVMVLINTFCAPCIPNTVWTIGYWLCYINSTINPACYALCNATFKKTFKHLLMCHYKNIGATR

[6] = molecular target: Voltage-gated inwardly rectifying potassium channel KCNH2 (Homo sapiens, UniProt Q12809); assay type: functional; conditions: read-out: AC50
Further: assay procedure not described here.

Chain of Vascular endothelial growth factor receptor 2 (P35968 whole entry): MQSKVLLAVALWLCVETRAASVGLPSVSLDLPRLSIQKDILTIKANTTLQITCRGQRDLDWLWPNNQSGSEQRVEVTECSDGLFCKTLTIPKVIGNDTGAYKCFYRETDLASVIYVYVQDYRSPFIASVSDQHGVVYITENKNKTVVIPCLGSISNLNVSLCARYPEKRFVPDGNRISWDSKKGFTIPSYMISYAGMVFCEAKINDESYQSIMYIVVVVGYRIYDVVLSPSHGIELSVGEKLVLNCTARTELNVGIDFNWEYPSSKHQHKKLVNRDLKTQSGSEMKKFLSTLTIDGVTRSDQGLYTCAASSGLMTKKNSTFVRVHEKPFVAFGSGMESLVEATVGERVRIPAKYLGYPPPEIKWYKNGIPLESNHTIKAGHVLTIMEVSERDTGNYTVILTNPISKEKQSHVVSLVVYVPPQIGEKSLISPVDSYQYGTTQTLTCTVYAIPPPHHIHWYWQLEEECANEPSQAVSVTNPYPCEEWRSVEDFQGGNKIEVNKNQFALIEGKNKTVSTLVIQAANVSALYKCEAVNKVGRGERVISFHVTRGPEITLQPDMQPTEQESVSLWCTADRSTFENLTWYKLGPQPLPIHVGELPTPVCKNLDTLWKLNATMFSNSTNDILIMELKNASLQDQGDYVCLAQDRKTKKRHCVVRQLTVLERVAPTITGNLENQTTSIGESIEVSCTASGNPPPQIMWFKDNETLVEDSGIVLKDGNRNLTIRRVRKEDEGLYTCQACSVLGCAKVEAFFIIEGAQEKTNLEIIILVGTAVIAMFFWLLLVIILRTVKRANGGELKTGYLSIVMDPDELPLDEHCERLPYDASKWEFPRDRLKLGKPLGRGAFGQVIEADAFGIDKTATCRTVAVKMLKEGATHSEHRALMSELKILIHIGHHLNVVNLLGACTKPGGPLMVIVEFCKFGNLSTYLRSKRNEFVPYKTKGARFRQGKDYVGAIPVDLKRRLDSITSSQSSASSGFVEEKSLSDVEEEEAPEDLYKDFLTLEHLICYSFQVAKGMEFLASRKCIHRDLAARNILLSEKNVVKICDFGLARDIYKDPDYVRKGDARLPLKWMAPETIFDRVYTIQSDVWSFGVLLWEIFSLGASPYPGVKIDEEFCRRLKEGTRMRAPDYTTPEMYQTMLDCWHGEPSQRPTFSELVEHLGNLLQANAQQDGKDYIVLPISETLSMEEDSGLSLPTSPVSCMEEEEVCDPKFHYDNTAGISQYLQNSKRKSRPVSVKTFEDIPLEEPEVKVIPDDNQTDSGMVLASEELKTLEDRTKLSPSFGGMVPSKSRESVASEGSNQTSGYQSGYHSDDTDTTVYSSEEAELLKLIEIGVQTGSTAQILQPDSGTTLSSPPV
Chain of Acetylcholinesterase (P22303 whole entry): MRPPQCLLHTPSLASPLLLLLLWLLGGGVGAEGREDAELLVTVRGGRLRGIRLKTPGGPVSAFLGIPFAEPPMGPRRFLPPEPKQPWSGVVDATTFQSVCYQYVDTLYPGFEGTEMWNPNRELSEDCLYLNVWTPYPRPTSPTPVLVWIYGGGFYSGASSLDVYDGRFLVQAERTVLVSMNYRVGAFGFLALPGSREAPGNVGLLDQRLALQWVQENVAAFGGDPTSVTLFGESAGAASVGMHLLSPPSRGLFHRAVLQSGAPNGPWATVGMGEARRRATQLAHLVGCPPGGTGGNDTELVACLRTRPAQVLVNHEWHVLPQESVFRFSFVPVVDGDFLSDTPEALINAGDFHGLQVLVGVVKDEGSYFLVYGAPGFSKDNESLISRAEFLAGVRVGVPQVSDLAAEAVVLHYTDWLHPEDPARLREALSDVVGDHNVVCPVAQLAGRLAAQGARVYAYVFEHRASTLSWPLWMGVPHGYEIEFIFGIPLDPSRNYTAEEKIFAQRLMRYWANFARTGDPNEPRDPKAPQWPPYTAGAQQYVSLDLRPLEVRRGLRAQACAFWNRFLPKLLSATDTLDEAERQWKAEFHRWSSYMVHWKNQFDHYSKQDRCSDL
Chain of 5-hydroxytryptamine receptor 2B (P41595 whole entry): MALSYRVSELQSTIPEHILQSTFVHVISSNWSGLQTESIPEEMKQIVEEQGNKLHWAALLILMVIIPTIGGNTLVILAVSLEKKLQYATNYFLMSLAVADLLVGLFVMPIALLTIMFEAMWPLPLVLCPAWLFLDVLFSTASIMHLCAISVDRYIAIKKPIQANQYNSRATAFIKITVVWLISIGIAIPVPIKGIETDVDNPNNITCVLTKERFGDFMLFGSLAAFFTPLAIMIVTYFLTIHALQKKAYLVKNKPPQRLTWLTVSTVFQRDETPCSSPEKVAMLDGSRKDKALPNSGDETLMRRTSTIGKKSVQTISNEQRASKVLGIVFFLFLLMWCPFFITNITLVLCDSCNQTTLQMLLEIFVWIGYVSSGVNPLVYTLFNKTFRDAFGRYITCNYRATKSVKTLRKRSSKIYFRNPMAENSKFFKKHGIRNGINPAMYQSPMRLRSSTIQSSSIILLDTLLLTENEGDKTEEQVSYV
Chain of Mu-type opioid receptor (P35372 whole entry): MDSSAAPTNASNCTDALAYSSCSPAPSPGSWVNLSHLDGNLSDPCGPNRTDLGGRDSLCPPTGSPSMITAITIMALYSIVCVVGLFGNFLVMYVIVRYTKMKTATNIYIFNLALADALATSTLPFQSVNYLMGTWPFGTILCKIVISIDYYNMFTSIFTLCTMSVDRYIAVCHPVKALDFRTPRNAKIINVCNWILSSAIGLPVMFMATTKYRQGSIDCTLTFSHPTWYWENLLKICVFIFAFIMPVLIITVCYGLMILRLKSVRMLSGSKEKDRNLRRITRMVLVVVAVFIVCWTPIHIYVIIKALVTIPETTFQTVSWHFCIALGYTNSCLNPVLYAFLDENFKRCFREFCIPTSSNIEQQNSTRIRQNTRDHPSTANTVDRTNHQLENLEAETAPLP
Chain of Voltage-gated inwardly rectifying potassium channel KCNH2 (Q12809 whole entry): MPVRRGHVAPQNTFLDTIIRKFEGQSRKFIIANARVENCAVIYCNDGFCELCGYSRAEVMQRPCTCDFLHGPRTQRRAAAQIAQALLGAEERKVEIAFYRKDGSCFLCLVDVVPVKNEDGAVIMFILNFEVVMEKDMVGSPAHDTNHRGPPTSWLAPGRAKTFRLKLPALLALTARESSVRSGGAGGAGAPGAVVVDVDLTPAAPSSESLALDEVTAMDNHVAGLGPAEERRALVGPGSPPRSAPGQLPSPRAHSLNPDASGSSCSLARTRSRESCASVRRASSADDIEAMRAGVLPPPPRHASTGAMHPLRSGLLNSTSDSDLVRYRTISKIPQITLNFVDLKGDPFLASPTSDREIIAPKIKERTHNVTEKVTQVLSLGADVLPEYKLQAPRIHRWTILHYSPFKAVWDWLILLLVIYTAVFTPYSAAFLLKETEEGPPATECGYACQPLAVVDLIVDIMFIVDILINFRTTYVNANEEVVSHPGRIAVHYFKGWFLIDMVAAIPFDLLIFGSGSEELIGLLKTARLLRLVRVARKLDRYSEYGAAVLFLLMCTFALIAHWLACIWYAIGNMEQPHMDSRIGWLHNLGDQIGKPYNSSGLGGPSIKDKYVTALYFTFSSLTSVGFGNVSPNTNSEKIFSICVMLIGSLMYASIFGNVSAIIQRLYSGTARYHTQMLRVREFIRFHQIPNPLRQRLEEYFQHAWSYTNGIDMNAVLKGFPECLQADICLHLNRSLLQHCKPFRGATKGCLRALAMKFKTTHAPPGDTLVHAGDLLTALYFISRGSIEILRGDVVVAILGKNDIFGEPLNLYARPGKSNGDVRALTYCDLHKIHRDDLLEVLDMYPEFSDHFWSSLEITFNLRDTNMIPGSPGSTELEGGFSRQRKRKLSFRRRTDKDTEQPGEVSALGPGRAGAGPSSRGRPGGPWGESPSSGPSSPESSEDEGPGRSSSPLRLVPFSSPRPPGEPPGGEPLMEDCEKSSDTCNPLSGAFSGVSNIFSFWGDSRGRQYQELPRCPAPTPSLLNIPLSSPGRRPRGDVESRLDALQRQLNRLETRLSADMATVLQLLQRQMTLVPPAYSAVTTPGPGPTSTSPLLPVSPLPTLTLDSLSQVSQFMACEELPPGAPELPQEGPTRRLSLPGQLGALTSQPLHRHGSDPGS
Chain of D(1A) dopamine receptor (P21728 whole entry): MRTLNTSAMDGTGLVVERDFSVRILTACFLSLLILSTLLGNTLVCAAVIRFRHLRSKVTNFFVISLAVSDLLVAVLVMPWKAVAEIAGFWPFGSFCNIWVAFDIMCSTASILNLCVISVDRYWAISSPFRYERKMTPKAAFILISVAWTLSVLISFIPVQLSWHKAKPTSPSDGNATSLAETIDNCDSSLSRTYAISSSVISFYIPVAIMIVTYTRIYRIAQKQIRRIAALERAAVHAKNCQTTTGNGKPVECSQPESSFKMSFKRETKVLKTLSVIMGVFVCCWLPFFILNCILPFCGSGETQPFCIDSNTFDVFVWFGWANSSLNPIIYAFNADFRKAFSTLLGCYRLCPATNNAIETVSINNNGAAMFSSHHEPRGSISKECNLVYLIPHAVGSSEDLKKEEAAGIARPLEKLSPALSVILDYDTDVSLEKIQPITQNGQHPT
Chain of D(3) dopamine receptor (P35462 whole entry): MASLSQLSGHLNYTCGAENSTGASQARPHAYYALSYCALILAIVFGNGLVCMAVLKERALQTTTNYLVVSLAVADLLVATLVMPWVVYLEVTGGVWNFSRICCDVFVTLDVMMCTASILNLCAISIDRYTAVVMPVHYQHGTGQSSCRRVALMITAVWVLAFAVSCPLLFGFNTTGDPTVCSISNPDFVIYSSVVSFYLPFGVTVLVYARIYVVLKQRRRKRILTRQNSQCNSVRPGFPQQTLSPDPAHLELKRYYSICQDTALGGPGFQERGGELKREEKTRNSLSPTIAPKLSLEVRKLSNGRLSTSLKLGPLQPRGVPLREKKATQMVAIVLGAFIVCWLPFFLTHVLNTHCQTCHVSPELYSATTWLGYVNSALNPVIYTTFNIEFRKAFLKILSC

Row | SMILES | AC50 (Mu-type opioid receptor) [µM] | AC50 [1] [µM] | AC50 [2] [µM] | AC50 [3] [µM] | AC50 [4] [µM] | AC50 (Acetylcholinesterase) [µM] | AC50 (Thromboxane A2 receptor) [µM] | AC50 (D(1A) dopamine receptor) [µM] | AC50 (D(3) dopamine receptor) [µM] | AC50 [5] [µM] | AC50 [6] [µM]
1 | NC(=O)C[C@H](N)C(=O)O [ASPARAGINE] | > 30 | > 30 | > 30 | > 30 | > 30 | > 30 | > 30 | > 30 | > 30 | > 30 | 
2 | CC(=O)Oc1ccc2c(c1)CC[C@@H]1[C@@H]2CC[C@]2(C)[C@@H](O)CC[C@@H]12 [ESTRADIOL ACETATE] | 9.04 | > 30 | 15 | > 30 | > 30 | > 30 | > 30 | > 30 | > 30 | > 30 | > 30
3 | CN(C)CCc1c[nH]c2ccc(C[C@H]3COC(=O)N3)cc12 [ZOLMITRIPTAN] |  |  |  |  |  |  |  |  |  |  | > 30
4 | O=c1[nH]c(=O)n([C@H]2C[C@H](O)[C@@H](CO)O2)cc1I [IDOXURIDINE] | > 30 | > 30 | > 30 | > 30 |  | > 30 | > 30 | > 30 | > 30 | > 30 | > 30
5 | NC1=NCC2c3ccccc3Cc3ccccc3N12 (configuration not stated) [EPINASTINE] | 17.4 | > 30 | 2.53 | > 30 | > 30 | > 30 | > 30 | 0.125 | > 30 | > 30 | 
6 | CCCC1O[C@@H]2C[C@H]3[C@@H]4CCC5=CC(=O)C=C[C@]5(C)[C@H]4[C@@H](O)C[C@]3(C)[C@]2(C(=O)CO)O1 (some centres not stated) [BUDESONIDE] | > 30 | > 30 | > 30 | > 30 |  | > 30 | > 30 | > 30 | > 30 | > 30 | > 30
7 | CN1CCN(C2=Nc3ccccc3Sc3ccc(Cl)cc32)CC1 [CLOTHIAPINE] | 1.1 |  | 0.01 | > 30 | > 10 | > 30 | > 10 | 0.0061 | 0.0061 | 0.52 | 4.1
8 | COc1cc([C@@H]2c3cc4c(cc3[C@H](O)[C@H]3COC(=O)[C@H]23)OCO4)cc(OC)c1OC [PODOFILOX] | > 30 | > 30 | 6.56 | > 30 |  | > 30 | > 30 | > 30 | > 30 | > 30 | > 30
9 | Cc1cc(C)c(NC(=O)CN(CC(=O)O)CC(=O)O)c(C)c1Br [MEBROFENIN] | > 30 |  |  | > 30 |  | > 30 | > 30 | > 30 | > 30 | > 30 | > 30
10 | C[S+](CC[C@H](N)C(=O)[O-])C[C@H]1O[C@@H](n2cnc3c(N)ncnc32)[C@H](O)[C@@H]1O (some centres not stated) [ADEMETIONINE] | > 30 | 19.4 | > 30 | > 30 | > 30 | > 30 | > 30 | > 30 | > 30 | > 30 | 
11 | CC[C@H]1CN2CCc3cc(OC)c(OC)cc3[C@@H]2C[C@@H]1C[C@H]1NCCc2cc(OC)c(OC)cc21 [EMETINE] | 5.99 |  |  | > 30 |  | > 30 | > 30 | 15.7 | > 30 | > 30 | 
